# Source: patent US9375402B2, “Oral formulations of kinase inhibitors” (VERASTEM, INC., priority 2010, dated 2016)
# Assay: Solubility of SR2516 and SR3406 in selected oils
# Type: physicochemical
# Details: shaken overnight at 25 deg C, filtrate, HPLC
# Experimental: This purpose of this study was to select an oil system as the vehicle base for the self-emosifying formulation based on the solubility
# Procedure • 1. Add 25 mg of each API in 2 mL eppendoff vial. Record weight. • 2. Weigh out each excipient. Record weight. • 3. Beadbeater 100 sec to mix well. If all dissolved, add additional 5-10 mg each time until excess solid is present. • 4. Use a platform shaker to shake all vials overnight at 25 deg C. • 5. Observe for clarity, presence and relative amount of precipitates. • 6. Filter using spin-X (0.22 um). • 7. Dilute the filtrate to normal concentration for HPLC analysis for drug concentration and purity %. • 8. Keep the filtrate at room temperature and observe for ppt at longer time point(s) if needed. Results Analysis on Filtrate Samples
Solubility (in Capmul MCM (F2)) [mg/g],Solubility (in Castor oil (F4)) [mg/g],Solubility (in Labrafil M 1944 CS (F3)) [mg/g],Solubility (in Miglyol 812 (F1)) [mg/g],Solubility (in Oleic acid (F5)) [mg/g],Compound
8.4,1.5,2.2,0.3,5.8,CNC(=O)c1ccccc1Nc1cc(Nc2ccc(N3CCOCC3)cc2OC)ncc1C(F)(F)F [SR-2516]
13.6,4.9,1.0,0.3,0.4,CNC(=O)c1cc(F)ccc1Nc1cc(Nc2ccc(N3CCOCC3)cc2OC)ncc1C(F)(F)F [SR-3406]
